Data set [1] deals with T1, NPR-B (Homo sapiens, UniProt P20594).
T1 sequence (P20594 23-1047): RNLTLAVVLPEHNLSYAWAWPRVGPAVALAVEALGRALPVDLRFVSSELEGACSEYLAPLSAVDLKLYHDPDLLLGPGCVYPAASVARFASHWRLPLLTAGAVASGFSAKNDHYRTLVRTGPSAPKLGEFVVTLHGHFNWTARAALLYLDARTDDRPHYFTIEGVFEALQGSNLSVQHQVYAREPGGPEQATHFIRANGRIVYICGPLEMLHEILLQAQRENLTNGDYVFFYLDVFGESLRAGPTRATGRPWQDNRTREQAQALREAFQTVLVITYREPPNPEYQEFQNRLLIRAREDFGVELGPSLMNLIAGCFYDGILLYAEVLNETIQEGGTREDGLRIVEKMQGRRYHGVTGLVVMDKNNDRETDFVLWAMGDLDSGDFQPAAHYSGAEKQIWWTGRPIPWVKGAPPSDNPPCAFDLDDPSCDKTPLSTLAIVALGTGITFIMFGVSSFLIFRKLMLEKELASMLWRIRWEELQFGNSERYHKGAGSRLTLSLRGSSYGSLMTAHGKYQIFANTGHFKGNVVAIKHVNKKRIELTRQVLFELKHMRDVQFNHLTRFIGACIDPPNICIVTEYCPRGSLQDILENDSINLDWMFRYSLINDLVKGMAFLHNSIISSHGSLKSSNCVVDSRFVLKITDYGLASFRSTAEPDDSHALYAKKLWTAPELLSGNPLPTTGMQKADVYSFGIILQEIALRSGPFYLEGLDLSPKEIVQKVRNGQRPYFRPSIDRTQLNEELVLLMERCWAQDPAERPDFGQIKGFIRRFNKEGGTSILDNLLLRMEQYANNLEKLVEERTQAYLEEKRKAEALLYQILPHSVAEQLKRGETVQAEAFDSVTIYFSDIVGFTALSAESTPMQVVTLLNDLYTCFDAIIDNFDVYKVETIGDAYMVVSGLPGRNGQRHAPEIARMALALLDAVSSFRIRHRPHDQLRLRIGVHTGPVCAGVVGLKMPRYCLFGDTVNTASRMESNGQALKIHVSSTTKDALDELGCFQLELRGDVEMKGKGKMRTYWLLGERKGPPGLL
The following applies: cited from earlier work.

For data set [2], the system named is medial meniscal tear-induced osteoarthritis. Briefly: Rat medial meniscal tear osteoarthritis model, knee histopathology (Example 1, IA dosing from Day 7). It counts as in vivo. The following applies: for cartilage degeneration in the tibia: 3x/week for 3 weeks from Day 7, vs control rats. As to the method:
A unilateral medial meniscal tear in 275-300 gram rats will result in rapidly progressive cartilage degeneration—characterized by chondrocyte and proteoglycan loss, fibrillation, osteophyte formation, and chondrocyte cloning. This model is performed by transection of the medial collateral ligament just below its attachment to the meniscus so that when the joint space opens, the meniscus is reflected toward the femur. The meniscus is cut at its narrowest point (away from the ossicles) taking care not to damage the tibial surface and making sure that the resulting transection produces separate, freely movable anterior and posterior meniscus halves.
Progressive cartilage degenerative changes occur and by 3-6 weeks post-surgery, tibial cartilage degeneration may be focally severe on the outer ⅓ of the tibia with degenerative changes of lesser severity in the middle and inner ⅓. Osteophytes are ultimately quite large (medial tibia) and progressively increase in size. The model is progressive and results in total cartilage loss (to eburnated bone) in […] in virtually all rats, with lesions that are reasonably consistent. […] Due to the rapid progression of cartilage degeneration, protective effects are not always apparent in the outer ⅓ of the tibial cartilage, although zonal analysis may reveal effects of treatment in the middle and inner ⅓. Substantial subchondral and epiphyseal bone changes occur in the medial tibia subjacent to the areas of greatest lesion severity. These range in magnitude and type from increased basophilia of the calcified cartilage layer with small fractures into subchondral bone to overt collapse of articular cartilage into areas of bone resorption in the epiphysis with surrounding sclerosis of bone. Therefore, this model offers the opportunity to evaluate not only chondroprotective effects of agents but also bone preserving activities. The model is of relatively short duration and animals are very consistent in their response to the surgery.
(§1) This rat model was used to determine the effect of CNP variants on slowing or repairing cartilage damage in osteoarthritis, where the CNP is delivered in response to joint injury or trauma. In this model a tear was introduced into the meniscus to provoke joint injury which results in cartilage degeneration and osteoarthritis (Janusz et al., Osteoarthritis Cartilage, 10:785-791, 2002). Male Lewis rats received a unilateral medial meniscectomy on Day 0; administration of control vehicle or the CNP variant Gly-CNP-37 began on Day 7; and the animals were euthanized on Day 29 for histopathological analysis of the affected joints. […] Therapeutic efficacy was evaluated by gait analysis and histopathological examination of chondrocyte death/cartilage degeneration in the knee.
In particular, surgery animals were anesthetized with isoflurane and the right knee and lower leg area were prepared for surgery. For the meniscal tear, a skin incision was made over the medial aspect of the knee and the medial collateral ligament was transected after being exposed by blunt dissection. The medial meniscus was cut through the full thickness to simulate a complete tear and the wound closed. Ninety minutes (90 min) post-surgery, animals were treated with a dose of Acetaminophen (100 mg/kg, PO) in 1% CMC (2 mL/kg, 50 mg/mL). A follow-on dose was given 24 hours post-surgery (as needed).
For histopathological analysis the operated joints were harvested from the euthanized rats. Following 4-6 days in 5% formic acid decalcifier, the operated joints are cut into two approximately equal halves in the frontal plane and embedded in paraffin. Sections were cut from each operated right knee at approximately 160 μm steps and stained with toluidine blue. […]

The test system is the same in data set [3]. Briefly: Rat medial meniscal tear osteoarthritis model, knee histopathology (Example 2, IA or SC). Format: in vivo.
For data set [4] the test system is unchanged. Briefly: Gait analysis in rat meniscal tear osteoarthritis model (Example 1). It counts as in vivo.
From the text: as §1
Gait analysis was performed by applying ink to the ventral surface of the foot and documenting weight bearing during movement (footprints) across paper. Rear feet of rats were placed in ink and then rats were placed on paper and allowed to walk the full length. Gait was scored visually using the criteria in Table 5 (descriptions refer to diseased/affected leg).

For data set [5], the target named is T1, NPR-B. The following applies: read-out: affinity to NPR-B; cited from earlier work.
The target of a further data set is NPR-C (Homo sapiens, UniProt P17342). The following applies: read-out: affinity to NPR-C; cited from earlier work.
Sequence of NPR-C (P17342 27-541, species assumed): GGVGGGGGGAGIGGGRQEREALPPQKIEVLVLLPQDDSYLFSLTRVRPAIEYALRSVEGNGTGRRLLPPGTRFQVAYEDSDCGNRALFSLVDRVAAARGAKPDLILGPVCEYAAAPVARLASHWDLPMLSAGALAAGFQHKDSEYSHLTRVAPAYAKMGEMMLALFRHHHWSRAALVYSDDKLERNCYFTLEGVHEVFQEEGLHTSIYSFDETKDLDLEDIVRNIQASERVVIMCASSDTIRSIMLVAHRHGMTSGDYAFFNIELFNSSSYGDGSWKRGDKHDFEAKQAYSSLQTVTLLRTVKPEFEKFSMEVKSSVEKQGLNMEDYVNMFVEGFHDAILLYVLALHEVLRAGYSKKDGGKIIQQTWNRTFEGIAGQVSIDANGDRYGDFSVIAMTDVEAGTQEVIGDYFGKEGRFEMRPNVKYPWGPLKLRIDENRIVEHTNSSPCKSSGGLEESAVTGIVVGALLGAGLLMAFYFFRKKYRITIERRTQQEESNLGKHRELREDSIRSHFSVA
The conditions of data set [6]: clearance by NEP and NPR-C; cited from earlier work.
A further data set concerns the target NEP (Homo sapiens, UniProt P08473). To be noted: NEP digestion for 2.5 minutes in vitro; Cys6-Phe7 and Gly8-Leu9 slightly most labile.

Where no end group is shown, it is not given here.

Sequence of NEP (P08473 whole entry): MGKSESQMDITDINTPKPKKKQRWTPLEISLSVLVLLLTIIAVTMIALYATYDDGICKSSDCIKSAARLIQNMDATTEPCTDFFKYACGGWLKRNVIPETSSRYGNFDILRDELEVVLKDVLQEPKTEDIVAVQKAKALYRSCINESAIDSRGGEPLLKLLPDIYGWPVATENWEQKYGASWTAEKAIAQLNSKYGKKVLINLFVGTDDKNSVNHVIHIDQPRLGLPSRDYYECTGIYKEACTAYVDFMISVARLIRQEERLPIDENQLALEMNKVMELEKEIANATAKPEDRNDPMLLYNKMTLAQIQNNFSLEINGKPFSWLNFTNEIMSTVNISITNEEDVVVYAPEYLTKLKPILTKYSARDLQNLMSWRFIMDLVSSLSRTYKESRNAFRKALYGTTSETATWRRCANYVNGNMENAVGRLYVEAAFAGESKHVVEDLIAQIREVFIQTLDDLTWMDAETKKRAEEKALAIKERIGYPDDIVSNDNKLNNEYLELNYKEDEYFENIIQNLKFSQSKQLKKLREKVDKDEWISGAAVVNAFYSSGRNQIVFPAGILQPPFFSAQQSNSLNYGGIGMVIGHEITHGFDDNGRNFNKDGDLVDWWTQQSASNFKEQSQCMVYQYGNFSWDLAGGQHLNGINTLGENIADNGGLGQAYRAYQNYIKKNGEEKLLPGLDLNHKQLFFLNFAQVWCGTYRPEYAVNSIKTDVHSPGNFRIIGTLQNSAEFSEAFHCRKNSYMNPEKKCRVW

“G19R mutation in CNP22: CNP22 with a G19R substitution (GLSKGCFGLKLDRIGSMSRLGC; ends and bridges not checked; cysteine pairing not given here; UniProt P23582 105-126, looked up, variant G19R)”: the NPR-B signaling activity entry with NPR-B [1] was “does not result in a significant loss”.
For the compound “GQEHPNARKYKGANKKGLSKGCFGLKLDRIGSMSGLGC (ends and bridges not checked; cysteine pairing not given here) [Gly-CNP-37]”, the “medial growth plate thickness” value in data set [2] (35.5 μg IA) was “a reduction in medial thickness, but not a significant reduction”; in data set [2] (110 μg IA) it was “significantly reduced”. In addition, the “Total Joint Score without Femur” value was “improved Total Joint Score without Femur, albeit to a lesser extent as compared to the higher dose” in data set [2] (35.5 μg/dose IA); “significantly reduced” in data set [2] (110 μg/dose IA); “significant reduction” in data set [3] (105 μg IA). In addition, in data set [2] (35.5 μg/dose IA), the “damage to the calcified cartilage and subchondral bone” value was “reduced damage to the calcified cartilage and subchondral bone, but to a lesser extent than the higher dose”. The “cartilage degeneration in the tibia” value in data set [2] (35.5 μg/dose IA) and in data set [2] (110 μg/dose IA) was “significant reduction” in each case. Moreover, the “reduction of tibial osteophyte measurement” value in data set [2] (110 μg/dose IA, p<0.05) is “approximately 24%”. Also, the “reduction of tibial osteophyte score” value in data set [2] (110 μg/dose IA, p<0.05) is “approximately 34%”. Also, the “damage to the calcified cartilage and subchondral bone, score” value in data set [2] (110 μg/dose IA, vehicle approximately 2.4) is roughly 1.3. Also, the “improvement in substantial tibial cartilage degeneration (width)” value in data set [2] (Gly-CNP-37 treated animals (IA)) is recorded as “greater than 50%”. Also, the “depth ratio (lesion depth / total depth), medial tibia” value in data set [2] (Gly-CNP-37 treated groups (IA) vs vehicle) is “improved”. The “Total Joint Score with Femur” value in data set [2] (both doses IA) is reported as “decreases total joint score at both doses, but not to a significant level”. The “medial tibial subchondral/epiphyseal trabecular bone thickening/sclerosis” value in data set [2] (both doses IA vs vehicle, not significant) was “observable decrease”. The “growth plate thickness, medial minus lateral difference” value in data set [2] (higher dose IA) is recorded as “significantly reduced”; in data set [2] (lower dose IA), “reduced thickness of the growth plate, but not to the same extent as the higher dose”. Also, the “collagen damage across the medial tibial plateau” value in data set [2] (lower and higher doses IA vs untreated controls) was “fewer areas with severe, marked and moderate degeneration”. Further, in data set [2] (treated groups (IA) vs vehicle), the “width of the cartilage affected by any degeneration” value is recorded as “improved”. In addition, in data set [3] (IA, Pro-Gly-CNP-37 35.5 and 105 μg, Gly-CNP-37 105 μg), the “effects on histopathology lesions of medial meniscal tear-induced osteoarthritis” value was “significant beneficial effects”. Moreover, the entries for the “gait score Area Under the Curve (AUC)” value in data set [4] (higher dose IA) and in data set [4] (lower dose IA) were “gait score being lower for both treated populations as compared to the untreated controls” and “decreased gait score to a greater extent than the higher CNP dose”, respectively. The “mobility and gait (gait score)” value in data set [4] (higher or lower dose IA, approximately day 15 to day 28) was “improvement in mobility and gait”.
Usually half-life stands for how long it takes for the measured level to halve. `CC[C@H](C)[C@@H]1NC(=O)[C@H](CCCNC(=N)N)NC(=O)[C@H](CC(=O)O)NC(=O)[C@H](CC(C)C)NC(=O)[C@H](CCCCN)NC(=O)[C@H](CC(C)C)NC(=O)CNC(=O)[C@H](Cc2ccccc2)NC(=O)[C@@H](NC(=O)CNC(=O)[C@H](CCCCN)NC(=O)[C@H](CO)NC(=O)[C@H](CC(C)C)NC(=O)CN)CSSC[C@@H](C(=O)O)NC(=O)CNC(=O)[C@H](CC(C)C)NC(=O)CNC(=O)[C@H](CO)NC(=O)[C@H](CCSC)NC(=O)[C@H](CO)NC(=O)CNC1=O` [CNP-22]: the Kd at NPR-B [5] is 0.007 to 0.03 nM; on NPR-C, 0.011 to 0.14 nM. Moreover, in data set [6], the half-life was roughly 2.6 min. Further, the “hydrolysis of NEP cleavage sites” value at NEP was “all possible sites were unexpectedly hydrolyzed”.

Source of the values: US12214015B2, “Use of c-type natriuretic peptide variants to treat osteoarthritis” (priority 2015, dated 2025).
